Patent US20150105252A1, “SUBSTITUTED PYRAZOLES AS HERBICIDES” (E I DU PONT DE NEMOURS AND COMPANY, priority 2013, published 2015)

What was measured:
rice = assay: Test B flood; assay type: in vivo, Oryza sativa; conditions: 250 g ai/ha, visual rating on 0 to 100 scale (0 no effect, 100 complete control), 13 to 15 days
Outline: (§1)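 Plants were grown to the 2-leaf stage, then pots were flooded to 3 cm above the soil and compounds were applied directly into the paddy water. Water depth was held for the whole test; after 13 to 15 days in a greenhouse, injury was visually rated against untreated controls (0 = no effect, 100 = complete control).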

kochia [1] = assay: Test A preemergence; assay type: in vivo, Kochia scoparia; conditions: for Kochia plant response rating (0 to 100 scale): visual injury approx. 10 days after treatment
Excerpt: (§2) Seeds of plant species selected from barnyardgrass (Echinochloa crus-galli), kochia (Kochia scoparia), common ragweed (Ambrosia elation), Italian ryegrass (Lolium multiflorum), crabgrass, large (large crabgrass, Digitaria sanguinalis), foxtail, giant (giant foxtail, Setaria faberii), morningglory (Ipomoea spp.), pigweed (redroot pigweed, Amaranthus retroflexus), velvetleaf (Abutilon theophrasti), wheat (Triticum aestivum), and corn (Zea mays) were planted into a blend of loam soil and sand and treated preemergence with a directed soil spray using test chemicals formulated in a non-phytotoxic solvent mixture which included a surfactant.
(§3) At the same time, plants selected from these crop and weed species and also blackgrass (Alopecurus myosuroides), and galium (catchweed bedstraw, Galium aparine) were planted in pots containing the same blend of loam soil and sand and treated with postemergence applications of test chemicals formulated in the same manner. Plants ranged in height from 2 to 10 cm and were in the one- to two-leaf stage for the postemergence treatment. Treated plants and untreated controls were maintained in a greenhouse for approximately 10 days, after which time all treated plants were compared to untreated controls and visually evaluated for injury. Plant response ratings, summarized in Table A, are based on a 0 to 100 scale where 0 is no effect and 100 is complete control. A dash (-) response means no test result.

sedge, umbrella = assay: Test B flood; assay type: in vivo, Cyperus difformis; conditions: 250 g ai/ha, visual rating on 0 to 100 scale (0 no effect, 100 complete control), 13 to 15 days
Outline: as §1

corn = assay: Test A postemergence; assay type: in vivo, Zea mays
Outline: (§4)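 Pre- and postemergence greenhouse test; loam+sand; cpd in non-phytotox. solvent/surfactant; post at 1–2 leaf, 2–10 cm; visual score ~10 d, 0 = none, 100 = complete control.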

barnyardgrass [2] = assay: Test B flood; assay type: in vivo, Echinochloa crus-galli; conditions: 250 g ai/ha, visual rating on 0 to 100 scale (0 no effect, 100 complete control), 13 to 15 days
Outline: as §1

wheat = assay: Test A postemergence; assay type: in vivo, Triticum aestivum
Outline: as §4

barnyardgrass [3] = assay: Test A postemergence; assay type: in vivo, Echinochloa crus-galli
Outline: as §4

galium = assay: Test A postemergence; assay type: in vivo, Galium aparine
Excerpt: as §2, §3

Italian ryegrass [4] = assay: Test A preemergence; assay type: in vivo, Lolium multiflorum; conditions: for Italian Ryegrass plant response rating (0 to 100 scale): visual injury approx. 10 days after treatment
Outline: as §4

common ragweed [5] = assay: Test A postemergence; assay type: in vivo, Ambrosia elation
Outline: as §4

foxtail, giant [6] = assay: Test A preemergence; assay type: in vivo, Setaria faberii; conditions: preemergence; for Foxtail, Giant plant response rating (0 to 100 scale): visual injury approx. 10 days after treatment
Outline: as §4

foxtail, giant [7] = assay: Test A postemergence; assay type: in vivo, Setaria faberii
Outline: as §4

barnyardgrass [8] = assay: Test A preemergence; assay type: in vivo, Echinochloa crus-galli; conditions: preemergence; for Barnyardgrass plant response rating (0 to 100 scale, 0 is no effect, 100 is complete control): visual injury approx. 10 days after treatment
Outline: as §4

pigweed [9] = assay: Test A preemergence; assay type: in vivo, Amaranthus retroflexus; conditions: preemergence; for Pigweed plant response rating (0 to 100 scale): visual injury approx. 10 days after treatment
Outline: as §4

Italian ryegrass [10] = assay: Test A postemergence; assay type: in vivo, Lolium multiflorum
Outline: as §4

pigweed [11] = assay: Test A postemergence; assay type: in vivo, Amaranthus retroflexus
Outline: as §4

common ragweed [12] = assay: Test A preemergence; assay type: in vivo, Ambrosia elation; conditions: for Common Ragweed plant response rating (0 to 100 scale): visual injury approx. 10 days after treatment
Outline: as §4

kochia [13] = assay: Test A postemergence; assay type: in vivo, Kochia scoparia
Outline: as §4

ducksalad = assay: Test B flood; assay type: in vivo, Heteranthera limosa; conditions: 250 g ai/ha, visual rating on 0 to 100 scale (0 no effect, 100 complete control), 13 to 15 days
Outline: as §1

blackgrass = assay: Test A postemergence; assay type: in vivo, Alopecurus myosuroides
Outline: as §4

[14] = 125 g ai/ha, visual injury, 0 to 100 scale, approx. 10 days
[15] = 500 g ai/ha, visual injury after approx. 10 days, 0 to 100 scale (0 no effect, 100 complete control)
[16] = Postemergence, 500 g ai/ha, 0 to 100 scale (0 no effect, 100 complete control)
[17] = postemergence, 125 g ai/ha, about 10 days, visual rating on 0 to 100 scale (0 no effect, 100 complete control)
[18] = Postemergence, 125 g ai/ha, 0 to 100 scale, 0 no effect, 100 complete control

Structure (SMILES)	Plant response rating, Rice (rice)	Plant response rating, Sedge, Umbrella (sedge, umbrella)	Corn plant response rating (corn; [16])	Corn plant response rating (corn; [17])	Plant response rating, Barnyardgrass (barnyardgrass [2])	Wheat plant response rating (wheat; [16])	Barnyardgrass plant response rating (barnyardgrass [3]; [16])	Barnyardgrass plant response rating (barnyardgrass [3]; [17])	Galium plant response rating (galium; [16])	Italian Ryegrass plant response rating (Italian ryegrass [4]; [15])	Common Ragweed plant response rating (common ragweed [5]; [16])	Foxtail, Giant plant response rating (foxtail, giant [6]; [15])	Foxtail, Giant plant response rating (foxtail, giant [7]; [16])	Barnyardgrass plant response rating (barnyardgrass [8]; [15])	Italian Ryegrass plant response rating (Italian ryegrass [10]; [16])	Pigweed plant response rating (pigweed [11]; [16])	Common Ragweed plant response rating (common ragweed [12]; [15])	Kochia plant response rating (kochia [13]; [16])	Plant response rating, Ducksalad (ducksalad)	Blackgrass plant response rating (blackgrass; [16])	other results
CCCCNC(=O)c1cc(CC)n(Cc2cc(OC(F)F)nn2C)n1 [Compound 135]	0	0	20	10	0	0	10	10	50	0	30	50	10	0	0	40	0	100	0	20	Kochia plant response rating (kochia [1]; [14]): 70; Kochia plant response rating (kochia [1]; [15]): 100; Wheat plant response rating (wheat; [17]): 0; Galium plant response rating (galium; [17]): 20; Italian Ryegrass plant response rating (Italian ryegrass [4]; [14]): 0; Common Ragweed plant response rating (common ragweed [5]; [17]): 10; Foxtail, Giant plant response rating (foxtail, giant [6]; [14]): 0; Foxtail, Giant plant response rating (foxtail, giant [7]; [17]): 0; Barnyardgrass plant response rating (barnyardgrass [8]; [14]): 0; Pigweed plant response rating (pigweed [9]; [14]): 0; Pigweed plant response rating (pigweed [9]; [15]): 50; Italian Ryegrass plant response rating (Italian ryegrass [10]; [17]): 0; Pigweed plant response rating (pigweed [11]; [17]): 10; Common Ragweed plant response rating (common ragweed [12]; [14]): 0; Kochia plant response rating (kochia [13]; [17]): 70; Blackgrass plant response rating (blackgrass; [17]): 0
CCc1cc(C(=O)NC(C)C)nn1Cc1cc(OC(F)F)nn1C [Compound 137]	0	30	30	10	0	10	60	0	80	40	30	80	70	70	20	80	100	90	30	50	Kochia plant response rating (kochia [1]; [14]): 30; Kochia plant response rating (kochia [1]; [15]): 100; Wheat plant response rating (wheat; [17]): 0; Galium plant response rating (galium; [17]): 50; Italian Ryegrass plant response rating (Italian ryegrass [4]; [14]): 0; Common Ragweed plant response rating (common ragweed [5]; [17]): 10; Foxtail, Giant plant response rating (foxtail, giant [6]; [14]): 20; Foxtail, Giant plant response rating (foxtail, giant [7]; [17]): 10; Barnyardgrass plant response rating (barnyardgrass [8]; [14]): 10; Pigweed plant response rating (pigweed [9]; [14]): 60; Pigweed plant response rating (pigweed [9]; [15]): 100; Italian Ryegrass plant response rating (Italian ryegrass [10]; [17]): 0; Pigweed plant response rating (pigweed [11]; [17]): 50; Common Ragweed plant response rating (common ragweed [12]; [14]): 10; Kochia plant response rating (kochia [13]; [17]): 50; Blackgrass plant response rating (blackgrass; [17]): 10
CCCNC(=O)c1cc(CC)n(Cc2cc(C(F)(F)F)nn2C(C)C)n1 [Compound 209]	0	0	0	0	0	0	0	0	0	0	0	0	0	0	0	0	0	0	0	0	Kochia plant response rating (0 to 100 scale) (kochia [1]; 125 g ai/ha): 0; Wheat plant response rating (wheat; [18]): 0; Galium plant response rating (galium; [18]): 0; Italian Ryegrass plant response rating (0 to 100 scale) (Italian ryegrass [4]; 125 g ai/ha): 0; Common Ragweed plant response rating (common ragweed [5]; [17]): 0; Foxtail, Giant plant response rating (0 to 100 scale) (foxtail, giant [6]; 125 g ai/ha): 0; Foxtail, Giant plant response rating (foxtail, giant [7]; [17]): 0; Barnyardgrass plant response rating (0 to 100 scale, 0 is no effect, 100 is complete control) (barnyardgrass [8]; 125 g ai/ha): 0; Pigweed plant response rating (0 to 100 scale) (pigweed [9]; 125 g ai/ha): 0; Italian Ryegrass plant response rating (Italian ryegrass [10]; [18]): 0; Pigweed plant response rating (pigweed [11]; [18]): 0; Common Ragweed plant response rating (0 to 100 scale) (common ragweed [12]; 125 g ai/ha): 0; Kochia plant response rating (kochia [13]; [18]): 0; Blackgrass plant response rating (blackgrass; [17]): 0
CCc1cc(C(=O)NC(C)C)nn1Cc1cc(C(F)(F)F)nn1C(C)C [Compound 210]	0	0	0		0	0	0		20	0	0	0	0	0	0	20	0	20	0	0	Kochia plant response rating (0 to 100 scale) (kochia [1]; 125 g ai/ha): 0; Corn plant response rating (corn; [18]): 0; Wheat plant response rating (wheat; [18]): 0; Barnyardgrass plant response rating (barnyardgrass [3]; [18]): 0; Galium plant response rating (galium; [18]): 0; Italian Ryegrass plant response rating (0 to 100 scale) (Italian ryegrass [4]; 125 g ai/ha): 0; Common Ragweed plant response rating (common ragweed [5]; [18]): 0; Foxtail, Giant plant response rating (0 to 100 scale) (foxtail, giant [6]; 125 g ai/ha): 0; Foxtail, Giant plant response rating (foxtail, giant [7]; [18]): 0; Barnyardgrass plant response rating (0 to 100 scale, 0 is no effect, 100 is complete control) (barnyardgrass [8]; 125 g ai/ha): 0; Pigweed plant response rating (0 to 100 scale) (pigweed [9]; 125 g ai/ha): 0; Italian Ryegrass plant response rating (Italian ryegrass [10]; [18]): 0; Pigweed plant response rating (pigweed [11]; [18]): 0; Common Ragweed plant response rating (0 to 100 scale) (common ragweed [12]; 125 g ai/ha): 0; Kochia plant response rating (kochia [13]; [18]): 10; Blackgrass plant response rating (blackgrass; [18]): 0
